pIC50: −log10 of the molar value.
Assays:
[1] = biological target: T1, Full-length human PRMT1 isoform 1 (Homo sapiens, UniProt Q99873); assay: PRMT1 biochemical assay (3H-SAM Flashplate, peptide substrate)
T1 construct: GST-tagged PRMT1; made in house; host or cells: High Five insect cells (baculovirus, pFastBacI)
How it was run: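 GST-tagged full-length PRMT1 from baculovirus-infected cells, preincubated 30 min at room temperature with compound in 20 mM Bicine pH 7.6, TCEP, BSG, Tween 20. Reaction started with 3H-SAM plus biotinylated peptide, stopped with 300 uM unlabelled SAM. Streptavidin Flashplate capture and scintillation counting; % inhibition curve-fitted for IC50.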

[2] = biological target: T2, Full-length human PRMT6 (Homo sapiens, UniProt Q96LA8); assay: PRMT6 biochemical assay (3H-SAM Flashplate, peptide substrate)
T2 construct: Flag-PRMT6-His was eluted with 200 ug/ml FLAG peptide in the same buffer; made in house; host or cells: HEK 293F cells (BacMam virus, pFastBacMam)
How it was run: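 Flag-PRMT6-His from baculovirus-infected cells, preincubated with compound 30 min at room temperature, then SAM/3H-SAM and biotinylated H4 36-50 peptide added; 20 mM Bicine pH 7.6, TCEP, BSG, Tween 20. Quenched with cold SAM, captured on streptavidin Flashplates; % inhibition from SAH/DMSO controls, 3- or 4-parameter IC50 fit.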

T2 sequence (Q96LA8 with tags, fused parts or gaps): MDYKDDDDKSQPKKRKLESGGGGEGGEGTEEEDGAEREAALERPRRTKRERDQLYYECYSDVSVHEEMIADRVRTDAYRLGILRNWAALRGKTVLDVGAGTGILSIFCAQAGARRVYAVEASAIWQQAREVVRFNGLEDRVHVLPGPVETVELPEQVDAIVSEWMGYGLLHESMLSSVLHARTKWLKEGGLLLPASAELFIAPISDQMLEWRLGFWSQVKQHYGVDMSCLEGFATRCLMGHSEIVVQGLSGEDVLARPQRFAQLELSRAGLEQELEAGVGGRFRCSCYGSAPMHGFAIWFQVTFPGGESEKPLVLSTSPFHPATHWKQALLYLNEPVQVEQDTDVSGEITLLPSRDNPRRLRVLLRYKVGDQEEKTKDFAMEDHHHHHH
T1 sequence (Q99873 with tags, fused parts or gaps): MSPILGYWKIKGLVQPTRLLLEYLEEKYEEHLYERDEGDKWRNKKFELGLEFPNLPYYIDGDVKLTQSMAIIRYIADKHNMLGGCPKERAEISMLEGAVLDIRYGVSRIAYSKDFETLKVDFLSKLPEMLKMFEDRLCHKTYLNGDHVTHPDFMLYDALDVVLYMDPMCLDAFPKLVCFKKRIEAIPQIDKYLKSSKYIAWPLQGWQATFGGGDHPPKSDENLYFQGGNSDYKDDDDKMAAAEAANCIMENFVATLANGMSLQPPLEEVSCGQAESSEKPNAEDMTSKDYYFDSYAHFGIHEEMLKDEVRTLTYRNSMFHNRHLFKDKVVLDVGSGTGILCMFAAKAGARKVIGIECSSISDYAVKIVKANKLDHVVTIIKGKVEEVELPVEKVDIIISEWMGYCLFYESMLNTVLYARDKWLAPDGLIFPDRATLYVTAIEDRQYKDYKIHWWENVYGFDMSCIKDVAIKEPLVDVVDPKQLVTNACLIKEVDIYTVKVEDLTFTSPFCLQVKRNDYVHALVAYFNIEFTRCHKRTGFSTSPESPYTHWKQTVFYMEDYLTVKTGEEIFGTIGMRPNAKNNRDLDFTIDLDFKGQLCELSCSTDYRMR

Structure (SMILES): COCCn1cc(CN(C)CCN)c(-c2ccc(F)cc2)n1 [Compound 5]
- pIC50 [1]: 5.52 to 6.00
- pIC50 [2]: 6.00 to 7.00

Structure (SMILES): COCCn1ncc(CN(C)CCN)c1-c1ccc(F)cc1 [Compound 6]
- pIC50 [1]: 5.00 to 5.52
- pIC50 [2]: 6.00 to 7.00

Structure (SMILES): CCn1ncc(CN(C)CCNC)c1-c1ccc(F)cc1 [Compound 7]
- pIC50 [1]: 6.00 to 7.00
- pIC50 [2]: > 7.00

Structure (SMILES): CCn1cc(CN(C)CCNC)c(-c2ccc(F)cc2)n1 [Compound 8]
- pIC50 [1]: 5.52 to 6.00
- pIC50 [2]: 6.00 to 7.00

Structure (SMILES): CN(CCN)Cc1c[nH]nc1-c1ccc(Cl)cc1 [Compound 95]
- pIC50 [1]: > 7.00
- pIC50 [2]: > 7.00

Structure (SMILES): CN(CCN)Cc1c[nH]nc1-c1ccc(OCC(F)(F)F)cc1 [Compound 96]
- pIC50 [1]: > 7.00
- pIC50 [2]: > 7.00

Structure (SMILES): CC(C)Oc1ccc(-c2n[nH]cc2CN(C)CCN)cc1F [Compound 97]
- pIC50 [1]: > 7.00
- pIC50 [2]: > 7.00

Structure (SMILES): CN(CCN)Cc1c[nH]nc1-c1ccc(C2CCOCC2)cc1 [Compound 98]
- pIC50 [1]: > 7.00
- pIC50 [2]: > 7.00

Structure (SMILES): CN(CCN)Cc1c[nH]nc1-c1ccc(F)cc1F [Compound 99]
- pIC50 [1]: > 7.00
- pIC50 [2]: > 7.00

Structure (SMILES): CN(CCN)Cc1n[nH]cc1-c1ccc(C#N)cc1 [Compound 100]
- pIC50 [1]: > 7.00
- pIC50 [2]: > 7.00

Structure (SMILES): CC(C)c1ccc(-c2c[nH]nc2CN(C)CCN)cc1 [Compound 101]
- pIC50 [1]: > 7.00
- pIC50 [2]: 6.00 to 7.00

Structure (SMILES): CN(CCN)Cc1n[nH]cc1-c1ccc(Cl)cc1 [Compound 102]
- pIC50 [1]: > 7.00
- pIC50 [2]: > 7.00

Structure (SMILES): CN(CCN)Cc1n[nH]cc1-c1ccc(C(F)(F)F)cc1 [Compound 103]
- pIC50 [1]: > 7.00
- pIC50 [2]: > 7.00

Structure (SMILES): CN(CCN)Cc1n[nH]cc1-c1ccc(C2CC2)cc1 [Compound 104]
- pIC50 [1]: > 7.00
- pIC50 [2]: > 7.00

Structure (SMILES): CN(CCN)Cc1n[nH]cc1-c1ccc(OC(F)(F)F)cc1 [Compound 105]
- pIC50 [1]: > 7.00
- pIC50 [2]: > 7.00

Structure (SMILES): CN(CCN)Cc1c[nH]nc1-c1cc(F)ccc1Cl [Compound 106]
- pIC50 [1]: 6.00 to 7.00
- pIC50 [2]: > 7.00

Structure (SMILES): COc1ccc(-c2n[nH]cc2CN(C)CCN)c(F)c1 [Compound 107]
- pIC50 [1]: > 7.00
- pIC50 [2]: > 7.00

Structure (SMILES): Cc1ccc(-c2n[nH]cc2CN(C)CCN)c(F)c1 [Compound 108]
- pIC50 [1]: > 7.00
- pIC50 [2]: > 7.00

Structure (SMILES): COc1ccccc1-c1n[nH]cc1CN(C)CCN [Compound 109]
- pIC50 [1]: 6.00 to 7.00
- pIC50 [2]: 6.00 to 7.00

Structure (SMILES): Cc1cc(C#N)ccc1-c1n[nH]cc1CN(C)CCN [Compound 110]
- pIC50 [1]: > 7.00
- pIC50 [2]: > 7.00

Structure (SMILES): CN(CCN)Cc1c[nH]nc1-c1cc(F)cc(F)c1 [Compound 111]
- pIC50 [1]: > 7.00
- pIC50 [2]: > 7.00

Structure (SMILES): CC(=O)c1cccc(-c2n[nH]cc2CN(C)CCN)c1 [Compound 112]
- pIC50 [1]: > 7.00
- pIC50 [2]: > 7.00

Structure (SMILES): CN(CCN)Cc1cnn(CC(O)CO)c1-c1ccc(F)cc1 (centres unmarked) [Compound 113]
- pIC50 [1]: 5.52 to 6.00
- pIC50 [2]: 6.00 to 7.00

Structure (SMILES): CN(CCN)Cc1c[nH]nc1-c1ccc(OC2CC2)cc1 [Compound 114]
- pIC50 [1]: > 7.00
- pIC50 [2]: > 7.00

Structure (SMILES): CC(O)c1ccc(-c2n[nH]cc2CN(C)CCN)cc1 (centres unmarked) [Compound 115]
- pIC50 [1]: > 7.00
- pIC50 [2]: > 7.00

Structure (SMILES): CN(CCN)Cc1c[nH]nc1-c1ccc(C2CC2)cc1 [Compound 116]
- pIC50 [1]: > 7.00
- pIC50 [2]: > 7.00

Structure (SMILES): CN(CCN)Cc1c[nH]nc1-c1ccc(C(F)(F)F)c(Cl)c1 [Compound 117]
- pIC50 [1]: > 7.00
- pIC50 [2]: > 7.00

Structure (SMILES): CN(CCN)Cc1c[nH]nc1-c1ccc(Cl)c(F)c1 [Compound 118]
- pIC50 [1]: > 7.00
- pIC50 [2]: > 7.00

Structure (SMILES): CN(CCN)Cc1n[nH]cc1-c1ccc(OC2CC2)cc1 [Compound 119]
- pIC50 [1]: > 7.00
- pIC50 [2]: > 7.00

Structure (SMILES): CN(CCN)Cc1c[nH]nc1-c1cc(F)cc(Cl)c1 [Compound 121]
- pIC50 [1]: > 7.00
- pIC50 [2]: > 7.00

Structure (SMILES): CN(CCN)Cc1c[nH]nc1-c1cccc(Cl)c1 [Compound 122]
- pIC50 [1]: > 7.00
- pIC50 [2]: > 7.00

Structure (SMILES): CN(CCN)Cc1c[nH]nc1-c1cccc(Cl)c1F [Compound 123]
- pIC50 [1]: > 7.00
- pIC50 [2]: > 7.00

Structure (SMILES): CN(CCN)Cc1c[nH]nc1-c1ccc(F)c(Cl)c1 [Compound 124]
- pIC50 [1]: > 7.00
- pIC50 [2]: > 7.00

Structure (SMILES): COc1ccc(-c2n[nH]cc2CN(C)CCN)cc1Cl [Compound 125]
- pIC50 [1]: > 7.00
- pIC50 [2]: > 7.00

Structure (SMILES): Cc1ccc(-c2n[nH]cc2CN(C)CCN)cc1Cl [Compound 126]
- pIC50 [1]: > 7.00
- pIC50 [2]: > 7.00

Structure (SMILES): COc1cc(Cl)cc(-c2n[nH]cc2CN(C)CCN)c1 [Compound 127]
- pIC50 [1]: > 7.00
- pIC50 [2]: > 7.00

Structure (SMILES): CN(CCN)Cc1cn(CC2CCOCC2)nc1-c1ccc(F)cc1 [Compound 128]
- pIC50 [1]: 5.00 to 5.52
- pIC50 [2]: 5.52 to 6.00

Structure (SMILES): Cc1c(F)cccc1-c1n[nH]cc1CN(C)CCN [Compound 129]
- pIC50 [1]: 6.00 to 7.00
- pIC50 [2]: > 7.00

Structure (SMILES): COc1cccc(-c2n[nH]cc2CN(C)CCN)c1 [Compound 130]
- pIC50 [1]: 6.00 to 7.00
- pIC50 [2]: > 7.00

Structure (SMILES): Cc1cccc(-c2n[nH]cc2CN(C)CCN)c1 [Compound 131]
- pIC50 [1]: > 7.00
- pIC50 [2]: > 7.00

Structure (SMILES): CN(CCN)Cc1c[nH]nc1-c1ccc(Cl)cc1F [Compound 132]
- pIC50 [1]: > 7.00
- pIC50 [2]: > 7.00

Structure (SMILES): Cc1cc(Cl)ccc1-c1n[nH]cc1CN(C)CCN [Compound 133]
- pIC50 [1]: > 7.00
- pIC50 [2]: > 7.00

Structure (SMILES): COc1ccc(-c2n[nH]cc2CN(C)CCN)cc1F [Compound 134]
- pIC50 [1]: > 7.00
- pIC50 [2]: > 7.00

Structure (SMILES): CN(CCN)Cc1c[nH]nc1-c1ccc(C(F)(F)F)cc1Cl [Compound 135]
- pIC50 [1]: > 7.00
- pIC50 [2]: > 7.00

Structure (SMILES): CCNC(=O)c1ccc(-c2n[nH]cc2CN(C)CCN)cc1 [Compound 136]
- pIC50 [1]: > 7.00
- pIC50 [2]: > 7.00

Structure (SMILES): CN(CCN)Cc1c[nH]nc1-c1cc(Cl)cc(Cl)c1 [Compound 137]
- pIC50 [1]: > 7.00
- pIC50 [2]: > 7.00

Structure (SMILES): CN(CCN)Cc1n[nH]cc1-c1ccc(OC(F)F)cc1 [Compound 138]
- pIC50 [1]: > 7.00
- pIC50 [2]: > 7.00

Structure (SMILES): CN(CCN1CCCC1)Cc1c[nH]nc1-c1ccc(C#N)cc1 [Compound 139]
- pIC50 [1]: < 5.00

Structure (SMILES): CN(CCN)Cc1c[nH]nc1-c1ccccc1C#N [Compound 140]
- pIC50 [1]: 6.00 to 7.00
- pIC50 [2]: 5.52 to 6.00

Structure (SMILES): CN(CCN)Cc1c[nH]nc1-c1ccc(C(F)(F)F)c(F)c1 [Compound 141]
- pIC50 [1]: > 7.00
- pIC50 [2]: > 7.00

Structure (SMILES): COc1cc(-c2n[nH]cc2CN(C)CCN)ccc1F [Compound 142]
- pIC50 [1]: > 7.00
- pIC50 [2]: > 7.00

Structure (SMILES): CCN(CC)C(=O)c1ccc(-c2n[nH]cc2CN(C)CCN)cc1 [Compound 143]
- pIC50 [1]: 6.00 to 7.00
- pIC50 [2]: 6.00 to 7.00

Structure (SMILES): CC(C)Oc1ccc(-c2c[nH]nc2CN(C)CCN)cc1F [Compound 144]
- pIC50 [1]: > 7.00
- pIC50 [2]: > 7.00

Structure (SMILES): CN(CCN)Cc1n[nH]cc1-c1ccc(C2CCOCC2)cc1 [Compound 145]
- pIC50 [1]: > 7.00
- pIC50 [2]: > 7.00

Structure (SMILES): COc1ccc(-c2n[nH]cc2CN(C)CCN)c(Cl)c1 [Compound 146]
- pIC50 [1]: > 7.00
- pIC50 [2]: > 7.00

Structure (SMILES): CN(CCN)Cc1c[nH]nc1-c1cc(C#N)ccc1Cl [Compound 147]
- pIC50 [1]: 5.52 to 6.00
- pIC50 [2]: > 7.00

Structure (SMILES): CN(CCN)Cc1c[nH]nc1-c1ccc(C(F)(F)F)cc1F [Compound 148]
- pIC50 [1]: 6.00 to 7.00
- pIC50 [2]: > 7.00

Structure (SMILES): CN(CCN)Cc1c[nH]nc1-c1cccc(N(C)C)c1 [Compound 149]
- pIC50 [1]: > 7.00
- pIC50 [2]: > 7.00

Structure (SMILES): CCOC(=O)c1cccc(-c2n[nH]cc2CN(C)CCN)c1 [Compound 150]
- pIC50 [1]: > 7.00
- pIC50 [2]: > 7.00

Structure (SMILES): COc1cc(F)ccc1-c1n[nH]cc1CN(C)CCN [Compound 151]
- pIC50 [1]: 6.00 to 7.00
- pIC50 [2]: 6.00 to 7.00

Structure (SMILES): Cc1cc(F)ccc1-c1n[nH]cc1CN(C)CCN [Compound 152]
- pIC50 [1]: > 7.00
- pIC50 [2]: > 7.00

Structure (SMILES): COc1ccc(-c2n[nH]cc2CN(C)CCN)cc1 [Compound 153]
- pIC50 [1]: > 7.00
- pIC50 [2]: > 7.00

Structure (SMILES): COc1ccc(-c2n[nH]cc2CN(C)CCN)c(C(F)(F)F)c1 [Compound 154]
- pIC50 [1]: 6.00 to 7.00
- pIC50 [2]: 6.00 to 7.00

Reference: patent publication US9346761B2, “Arginine methyltransferase inhibitors and uses thereof” (Epizyme, Inc., priority 2013, dated 2016)
